The text below walks through data of PubChem BioAssay (NCI).

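96-well plates; 48 h exposure; 5 concentrations. Endpoints by linear interpolation between flanking doses. Not reached: highest tested concentration assigned. Abbreviation: GI50, concentration required for 50% inhibition of growth. The concentration for full growth arrest is given as TGI.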 A value given as a limit tells only on which side of the number the result lay.

For the first test, the system named is HOP-92 NSCLC. Description: NCI-60 cell line screen, 48 h.
For the compound `Cn1cc(C2=C(c3c4n(c5ccccc35)CCCCC4)C(=O)NC2=O)c2ccccc21`, the GI50 was 1.48 µM and the TGI is above 25 µM.
As to `Cc1ccnc2c1ccc1c(C)ccnc12`, the GI50 was 0.656 µM and the TGI worked out at 16.1 µM.
The compound `O=C1/C(=C/c2ccc(O)c(O)c2)CCC/C1=C\c1ccc(O)c(O)c1` displayed a TGI of 13.2 µM.
For `Nc1ccccc1C#C/C=C\C#Cc1ccccc1OC(F)(F)F`, the GI50 was 9.57 µM and the TGI amounted to 26.4 µM.
For `CC(C)=CCC\C(C)=C/C=C/C(C)=C\C=C\C(C)=C/C=C/C=C(C)\C=C\C=C(C)/C=C/C=C(/C)CCC=C(C)C`, the TGI was above 100 µM.
Turning to `CN1CCCCC1CCN1c2ccccc2Sc2ccc(Cl)cc21` (centres undefined), the GI50 is 1.35 µM and the TGI is 5.18 µM.
Consider `CC(=O)OC1OC([C@@H]2c3cccc(O)c3C(=O)c3c(O)cc(C)cc32)C(O)C(O)C1O` (some centres undefined), for which the GI50 is 0.0233 µM and the TGI was determined as 0.0717 µM.
Take `Cc1ccc(CN2CCC(C(=O)Nc3ccc(-c4cc5ccccc5[nH]4)cc3)CC2)o1`: the GI50 is 2.71 µM and the TGI was above 100 µM.
Taken in the same sequence, the figures for `Nc1c(C(=O)c2cccc(CCS(N)(=O)=O)c2)cnn1-c1ccc(F)cc1` were above 25 µM and above 25 µM.
Taken in the same sequence, the figures for `Cc1ccc2c(C)c3c(ccc4ccccc43)c[n+]2c1` were 6.28 µM and 35.2 µM.
`Fc1ccc(NC(=S)SCc2ccc3c(c2)OCO3)cc1F` displayed a TGI of 88.9 µM.
As to `Cc1ccsc1C(=S)Nc1ccc(Cl)c(/C=N/OC(C)(C)C)c1`, the TGI amounted to 48.8 µM.
`CCOC(=O)Cn1c(C(F)(F)F)nc2nc(Cl)c(Cl)nc21` displayed a TGI of 70.3 µM.
As for `O=C1NC(=NCCc2cccc(F)c2)S/C1=C\c1ccc2ncccc2c1`, the GI50 was above 25 µM and the TGI was above 25 µM.
For `OCc1cc2ccccc2c2c3c(ccc12)OCO3`, the GI50 was 14.7 µM and the TGI is 58.2 µM.
`Cc1ccc(Cl)c2c(N=Nc3ccccc3[N+](=O)[O-])c(O)[nH]c12`: the TGI was above 100 µM.
For `OC1CSSC1Cn1cnc2c(Nc3ccc(OCc4cccc(F)c4)c(Cl)c3)ncnc21` (centres undefined), the GI50 is 8.97 µM and the TGI is 23 µM.

Another test concerns MALME-3M melanoma. Description: NCI-60 cell line screen, 48 h.
Regarding `Cn1cc(C2=C(c3c4n(c5ccccc35)CCCCC4)C(=O)NC2=O)c2ccccc21`, the GI50 is above 11.5 µM and the TGI is above 25 µM.
Take `Cc1ccnc2c1ccc1c(C)ccnc12`: the GI50 is 0.364 µM and the TGI is 5.27 µM.
Consider `O=C1/C(=C/c2ccc(O)c(O)c2)CCC/C1=C\c1ccc(O)c(O)c1`, for which the TGI was 7.05 µM.
As for `Nc1ccccc1C#C/C=C\C#Cc1ccccc1OC(F)(F)F`, the GI50 was 11.4 µM and the TGI is 38.1 µM.
`CC(C)=CCC\C(C)=C/C=C/C(C)=C\C=C\C(C)=C/C=C/C=C(C)\C=C\C=C(C)/C=C/C=C(/C)CCC=C(C)C` showed a TGI above 100 µM.
On to `CN1CCCCC1CCN1c2ccccc2Sc2ccc(Cl)cc21` (centres undefined), for which the GI50 is 2.1 µM and the TGI is 4.25 µM.
`CC(=O)OC1OC([C@@H]2c3cccc(O)c3C(=O)c3c(O)cc(C)cc32)C(O)C(O)C1O` (some centres undefined): the GI50 was 0.0288 µM and the TGI came to 0.0902 µM.
Turning to `Cc1ccc(CN2CCC(C(=O)Nc3ccc(-c4cc5ccccc5[nH]4)cc3)CC2)o1`, the GI50 was above 100 µM and the TGI was above 100 µM.
Turning to `Nc1c(C(=O)c2cccc(CCS(N)(=O)=O)c2)cnn1-c1ccc(F)cc1`, the GI50 is above 25 µM and the TGI was above 25 µM.
In the case of `Cc1ccc2c(C)c3c(ccc4ccccc43)c[n+]2c1`, the GI50 is 1.96 µM and the TGI turned out to be 5.69 µM.
The compound `Fc1ccc(NC(=S)SCc2ccc3c(c2)OCO3)cc1F` returned a TGI of 76.3 µM.
The compound `Cc1ccsc1C(=S)Nc1ccc(Cl)c(/C=N/OC(C)(C)C)c1` displayed a TGI above 100 µM.
On the same count and under the same terms, as for `CCOC(=O)Cn1c(C(F)(F)F)nc2nc(Cl)c(Cl)nc21`, the figure is above 100 µM.
Take `O=C1NC(=NCCc2cccc(F)c2)S/C1=C\c1ccc2ncccc2c1`: the GI50 was 17.2 µM and the TGI was above 25 µM.
Taken in the same sequence, the figures for `OCc1cc2ccccc2c2c3c(ccc12)OCO3` were 48.1 µM and 209 µM.
With `Cc1ccc(Cl)c2c(N=Nc3ccccc3[N+](=O)[O-])c(O)[nH]c12`, the TGI is above 100 µM.
Regarding `OC1CSSC1Cn1cnc2c(Nc3ccc(OCc4cccc(F)c4)c(Cl)c3)ncnc21` (centres undefined), the GI50 was 2.52 µM and the TGI was determined as 10.6 µM.

The test system of another test is OVCAR-8 ovarian. Description: NCI-60 cell line screen, 48 h.
Take `Cn1cc(C2=C(c3c4n(c5ccccc35)CCCCC4)C(=O)NC2=O)c2ccccc21`: the GI50 was 10.7 µM and the TGI is above 25 µM.
As for `Cc1ccnc2c1ccc1c(C)ccnc12`, the GI50 is 0.397 µM and the TGI amounted to 14.1 µM.
Compound `O=C1/C(=C/c2ccc(O)c(O)c2)CCC/C1=C\c1ccc(O)c(O)c1` registered a TGI of 4.42 µM.
As to `Nc1ccccc1C#C/C=C\C#Cc1ccccc1OC(F)(F)F`, the GI50 was 6.7 µM and the TGI turned out to be 47.2 µM.
`CC(C)=CCC\C(C)=C/C=C/C(C)=C\C=C\C(C)=C/C=C/C=C(C)\C=C\C=C(C)/C=C/C=C(/C)CCC=C(C)C` yielded a TGI above 100 µM.
`CN1CCCCC1CCN1c2ccccc2Sc2ccc(Cl)cc21` (centres undefined): the GI50 was 3.83 µM and the TGI was found to be 12.5 µM.
Taken in the same sequence, the figures for `CC(=O)OC1OC([C@@H]2c3cccc(O)c3C(=O)c3c(O)cc(C)cc32)C(O)C(O)C1O` (some centres undefined) were 0.122 µM and 4 µM.
Turning to `Cc1ccc(CN2CCC(C(=O)Nc3ccc(-c4cc5ccccc5[nH]4)cc3)CC2)o1`, the GI50 is above 100 µM and the TGI was above 100 µM.
With `Nc1c(C(=O)c2cccc(CCS(N)(=O)=O)c2)cnn1-c1ccc(F)cc1`, the GI50 is above 25 µM and the TGI is above 25 µM.
In the case of `Cc1ccc2c(C)c3c(ccc4ccccc43)c[n+]2c1`, the GI50 is 6.35 µM and the TGI was found to be 25.4 µM.
`Fc1ccc(NC(=S)SCc2ccc3c(c2)OCO3)cc1F` showed a TGI of 35.9 µM.
Same read-out and setting: as for `Cc1ccsc1C(=S)Nc1ccc(Cl)c(/C=N/OC(C)(C)C)c1`, the figure is above 100 µM; as for `CCOC(=O)Cn1c(C(F)(F)F)nc2nc(Cl)c(Cl)nc21`, above 100 µM.
Consider `O=C1NC(=NCCc2cccc(F)c2)S/C1=C\c1ccc2ncccc2c1`, for which the GI50 was 12.8 µM and the TGI was above 25 µM.
With `OCc1cc2ccccc2c2c3c(ccc12)OCO3`, the GI50 was 29.2 µM and the TGI amounted to 199 µM.
Turning to `Cc1ccc(Cl)c2c(N=Nc3ccccc3[N+](=O)[O-])c(O)[nH]c12`, the TGI is above 100 µM.
For `OC1CSSC1Cn1cnc2c(Nc3ccc(OCc4cccc(F)c4)c(Cl)c3)ncnc21` (centres undefined), the GI50 was 3.71 µM and the TGI was 12 µM.

The subject of the next test is SK-OV-3 ovarian. Description: NCI-60 cell line screen, 48 h.
For the compound `Cn1cc(C2=C(c3c4n(c5ccccc35)CCCCC4)C(=O)NC2=O)c2ccccc21`, the GI50 was 7.11 µM and the TGI was above 25 µM.
Regarding `Cc1ccnc2c1ccc1c(C)ccnc12`, the GI50 was 0.526 µM and the TGI amounted to 9.61 µM.
Compound `O=C1/C(=C/c2ccc(O)c(O)c2)CCC/C1=C\c1ccc(O)c(O)c1` displayed a TGI of 20.7 µM.
In the case of `Nc1ccccc1C#C/C=C\C#Cc1ccccc1OC(F)(F)F`, the GI50 is 7.12 µM and the TGI came out at 67.7 µM.
In turn, `CC(C)=CCC\C(C)=C/C=C/C(C)=C\C=C\C(C)=C/C=C/C=C(C)\C=C\C=C(C)/C=C/C=C(/C)CCC=C(C)C` displayed a TGI above 100 µM.
In the case of `CN1CCCCC1CCN1c2ccccc2Sc2ccc(Cl)cc21` (centres undefined), the GI50 was 3.69 µM and the TGI is 13.7 µM.
On to `CC(=O)OC1OC([C@@H]2c3cccc(O)c3C(=O)c3c(O)cc(C)cc32)C(O)C(O)C1O` (some centres undefined), for which the GI50 was 0.134 µM and the TGI turned out to be 3.17 µM.
Turning to `Cc1ccc(CN2CCC(C(=O)Nc3ccc(-c4cc5ccccc5[nH]4)cc3)CC2)o1`, the GI50 was above 100 µM and the TGI is above 100 µM.
Regarding `Nc1c(C(=O)c2cccc(CCS(N)(=O)=O)c2)cnn1-c1ccc(F)cc1`, the GI50 was above 25 µM and the TGI is above 25 µM.
As to `Cc1ccc2c(C)c3c(ccc4ccccc43)c[n+]2c1`, the GI50 was 18.6 µM and the TGI is 57.2 µM.
Take `Fc1ccc(NC(=S)SCc2ccc3c(c2)OCO3)cc1F`: the TGI was above 100 µM.
Turning to `Cc1ccsc1C(=S)Nc1ccc(Cl)c(/C=N/OC(C)(C)C)c1`, the TGI is above 100 µM.
Still for that read-out and setting: with `CCOC(=O)Cn1c(C(F)(F)F)nc2nc(Cl)c(Cl)nc21` the figure was above 100 µM.
Consider `O=C1NC(=NCCc2cccc(F)c2)S/C1=C\c1ccc2ncccc2c1`, for which the GI50 is 4.38 µM and the TGI was above 25 µM.
For `OCc1cc2ccccc2c2c3c(ccc12)OCO3`, the GI50 was 32 µM and the TGI turned out to be 96.6 µM.
In turn, `Cc1ccc(Cl)c2c(N=Nc3ccccc3[N+](=O)[O-])c(O)[nH]c12` displayed a TGI above 100 µM.
In the case of `OC1CSSC1Cn1cnc2c(Nc3ccc(OCc4cccc(F)c4)c(Cl)c3)ncnc21` (centres undefined), the GI50 was 0.75 µM and the TGI is 1.75 µM.

The test system of a further test is PC-3 prostate. Nature of the test: NCI-60 cell line screen, 48 h.
On to `Cn1cc(C2=C(c3c4n(c5ccccc35)CCCCC4)C(=O)NC2=O)c2ccccc21`, for which the GI50 is 3.2 µM and the TGI is above 25 µM.
For `Cc1ccnc2c1ccc1c(C)ccnc12`, the GI50 is 0.43 µM and the TGI stood at 15.5 µM.
On to `O=C1/C(=C/c2ccc(O)c(O)c2)CCC/C1=C\c1ccc(O)c(O)c1`, for which the TGI is 19 µM.
With `Nc1ccccc1C#C/C=C\C#Cc1ccccc1OC(F)(F)F`, the GI50 is 5.98 µM and the TGI is above 100 µM.
Regarding `CC(C)=CCC\C(C)=C/C=C/C(C)=C\C=C\C(C)=C/C=C/C=C(C)\C=C\C=C(C)/C=C/C=C(/C)CCC=C(C)C`, the TGI was above 100 µM.
On to `CN1CCCCC1CCN1c2ccccc2Sc2ccc(Cl)cc21` (centres undefined), for which the GI50 is 3.22 µM and the TGI was found to be 11.7 µM.
For `CC(=O)OC1OC([C@@H]2c3cccc(O)c3C(=O)c3c(O)cc(C)cc32)C(O)C(O)C1O` (some centres undefined), the GI50 is below 0.01 µM.
`Cc1ccc(CN2CCC(C(=O)Nc3ccc(-c4cc5ccccc5[nH]4)cc3)CC2)o1`: the GI50 was above 100 µM and the TGI was above 100 µM.
With `Nc1c(C(=O)c2cccc(CCS(N)(=O)=O)c2)cnn1-c1ccc(F)cc1`, the GI50 is above 25 µM and the TGI was above 25 µM.
On to `Cc1ccc2c(C)c3c(ccc4ccccc43)c[n+]2c1`, for which the GI50 is 7.15 µM and the TGI turned out to be 41 µM.
`Fc1ccc(NC(=S)SCc2ccc3c(c2)OCO3)cc1F` yielded a TGI of 76.6 µM.
Same read-out and setting: as for `Cc1ccsc1C(=S)Nc1ccc(Cl)c(/C=N/OC(C)(C)C)c1`, the figure is above 100 µM; as for `CCOC(=O)Cn1c(C(F)(F)F)nc2nc(Cl)c(Cl)nc21`, above 100 µM.
Take `O=C1NC(=NCCc2cccc(F)c2)S/C1=C\c1ccc2ncccc2c1`: the GI50 was above 25 µM and the TGI was above 25 µM.
In the case of `OCc1cc2ccccc2c2c3c(ccc12)OCO3`, the GI50 was 25.4 µM and the TGI amounted to 140 µM.
Regarding `Cc1ccc(Cl)c2c(N=Nc3ccccc3[N+](=O)[O-])c(O)[nH]c12`, the TGI was above 100 µM.
Take `OC1CSSC1Cn1cnc2c(Nc3ccc(OCc4cccc(F)c4)c(Cl)c3)ncnc21` (centres undefined): the GI50 was 0.749 µM and the TGI is 1.87 µM.
